From PubChem BioAssay AID1259407 (Chemical Carcinogenesis Research Information System (CCRIS), 2018) come the findings set out here.

In this data set the test system is CCRIS mutagenicity, Ames/micronucleus/aberration tests. As to the kind of experiment: CCRIS mutagenicity studies.
[1] abbreviates: Test System: AMES SALMONELLA TYPHIMURIUM, Strain/Indicator: TA98, Metabolic Activation: NONE, Method: PREINCUBATION
Where [2] appears, read: Test System: AMES SALMONELLA TYPHIMURIUM, Strain/Indicator: TA100, Metabolic Activation: NONE, Method: PREINCUBATION
The mark [3] stands for this setting: Test System: AMES SALMONELLA TYPHIMURIUM, Strain/Indicator: TA1535, Metabolic Activation: NONE, Method: PREINCUBATION
Where [4] appears, read: Test System: AMES SALMONELLA TYPHIMURIUM, Strain/Indicator: TA1537, Metabolic Activation: NONE, Method: PREINCUBATION

The structures appear in SMILES notation. Activity calls are given as the source filed them. No rule for the calls is given here.

On to `CCCNCCC`, for which the mutagenic call is “inactive; negative” (Test System: AMES SALMONELLA TYPHIMURIUM, Strain/Indicator: TA98, Metabolic Activation: HAMSTER, LIVER, S-9, AROCLOR 1254 (10%), Method: PREINCUBATION); “inactive; negative” under setting [1]; “inactive; negative” (Test System: AMES SALMONELLA TYPHIMURIUM, Strain/Indicator: TA98, Metabolic Activation: RAT, LIVER, S-9, AROCLOR 1254 (10%), Method: PREINCUBATION); “inactive; negative” (Test System: AMES SALMONELLA TYPHIMURIUM, Strain/Indicator: TA100, Metabolic Activation: HAMSTER, LIVER, S-9, AROCLOR 1254 (10%), Method: PREINCUBATION); “inactive; negative” under setting [2]; “inactive; negative” (Test System: AMES SALMONELLA TYPHIMURIUM, Strain/Indicator: TA100, Metabolic Activation: RAT, LIVER, S-9, AROCLOR 1254 (10%), Method: PREINCUBATION). The mutagenic call is, setting by setting: (Test System: AMES SALMONELLA TYPHIMURIUM, Strain/Indicator: TA1535, Metabolic Activation: HAMSTER, LIVER, S-9, AROCLOR 1254 (10%), Method: PREINCUBATION) “inactive; negative”; under setting [3], “inactive; negative”; (Test System: AMES SALMONELLA TYPHIMURIUM, Strain/Indicator: TA1535, Metabolic Activation: RAT, LIVER, S-9, AROCLOR 1254 (10%), Method: PREINCUBATION) “inactive; negative”; (Test System: AMES SALMONELLA TYPHIMURIUM, Strain/Indicator: TA1537, Metabolic Activation: HAMSTER, LIVER, S-9, AROCLOR 1254 (10%), Method: PREINCUBATION) “inactive; negative”; under setting [4], “inactive; negative”; (Test System: AMES SALMONELLA TYPHIMURIUM, Strain/Indicator: TA1537, Metabolic Activation: RAT, LIVER, S-9, AROCLOR 1254 (10%), Method: PREINCUBATION) “inactive; negative”.

Take `[Cl][Sb]([Cl])[Cl]`: the mutagenic call runs as follows: under setting [1], “inactive; negative”; (Test System: AMES SALMONELLA TYPHIMURIUM, Strain/Indicator: TA98, Metabolic Activation: RAT, LIVER, S-9 (10%), Method: PREINCUBATION) “inactive; negative”; under setting [2], “inactive; negative”; (Test System: AMES SALMONELLA TYPHIMURIUM, Strain/Indicator: TA100, Metabolic Activation: RAT, LIVER, S-9 (10%), Method: PREINCUBATION) “inactive; negative”.

With `CC(C)Br`, the mutagenic call is “inactive; negative” (End Point: In vitro micronucleus, Test System: Chinese Hamster Ovary (CHO-WBL) cells, Metabolic Activation: None); “inactive; negative” under setting [1]; “inactive; negative” (Test System: AMES SALMONELLA TYPHIMURIUM, Strain/Indicator: TA98, Metabolic Activation: RAT LIVER S-9, PHENOBARBITAL AND BETA-NAPHTHOFLAVONE, Method: PREINCUBATION); “inactive; negative” (Test System: AMES SALMONELLA TYPHIMURIUM, Strain/Indicator: TA98, Metabolic Activation: RAT, LIVER, S-9, PHENOBARBITAL AND 5,6-BENZOFLAVONE, Method: PREINCUBATION); “active; positive” (Test System: AMES SALMONELLA TYPHIMURIUM, Strain/Indicator: TA100, Metabolic Activation: RAT, LIVER, S-9, PHENOBARBITAL AND 5,6-BENZOFLAVONE, Method: PREINCUBATION); “active; positive” under setting [3]. Also, the mutagenic call runs as follows: (Test System: AMES SALMONELLA TYPHIMURIUM, Strain/Indicator: TA1535, Metabolic Activation: RAT LIVER S-9, PHENOBARBITAL AND BETA-NAPHTHOFLAVONE, Method: PREINCUBATION) “active; positive”; (Test System: AMES SALMONELLA TYPHIMURIUM, Strain/Indicator: TA1535, Metabolic Activation: RAT, LIVER, S-9, PHENOBARBITAL AND 5,6-BENZOFLAVONE, Method: PREINCUBATION) “active; positive”; under setting [4], “inactive; negative”; (Test System: AMES SALMONELLA TYPHIMURIUM, Strain/Indicator: TA1537, Metabolic Activation: RAT LIVER S-9, PHENOBARBITAL AND BETA-NAPHTHOFLAVONE, Method: PREINCUBATION) “inactive; negative”; (Test System: AMES SALMONELLA TYPHIMURIUM, Strain/Indicator: TA1537, Metabolic Activation: RAT, LIVER, S-9, PHENOBARBITAL AND 5,6-BENZOFLAVONE, Method: PREINCUBATION) “inactive; negative”; (Test System: E. COLI, Strain/Indicator: WP2 UVRA, Metabolic Activation: NONE, Method: PREINCUBATION) “inactive; negative”. For the same compound, the mutagenic call (Test System: E. COLI, Strain/Indicator: WP2 UVRA, Metabolic Activation: RAT, LIVER, S-9, PHENOBARBITAL AND 5,6-BENZOFLAVONE, Method: PREINCUBATION) is “inactive; negative”.

Take `C[C@@H]1CC2c3cccc4c3c(cn4C3CCCC3)C[C@H]2N(C)C1` (some centres not stated): the mutagenic call (Test System: AMES SALMONELLA TYPHIMURIUM, Strain/Indicator: TA100, Metabolic Activation: RAT, LIVER, S-9, AROCLOR 1254, Method: STANDARD PLATE) was “active; positive”.

For `CN(C)CCCNc1c2ccccc2nc2c([N+](=O)[O-])cccc12`, the mutagenic call runs as follows: (Test System: AMES SALMONELLA TYPHIMURIUM, Strain/Indicator: TA98(1,8-DNP6), Metabolic Activation: NONE, Method: STANDARD PLATE) “active; positive”; (Test System: AMES SALMONELLA TYPHIMURIUM, Strain/Indicator: TA98(1,8-DNP6), Metabolic Activation: RAT, LIVER, S-9, Method: STANDARD PLATE) “active; positive”; (Test System: AMES SALMONELLA TYPHIMURIUM, Strain/Indicator: TA98(NR), Metabolic Activation: NONE, Method: STANDARD PLATE) “active; positive”; (Test System: AMES SALMONELLA TYPHIMURIUM, Strain/Indicator: TA98(NR), Metabolic Activation: RAT, LIVER, S-9, Method: STANDARD PLATE) “active; positive”; (Test System: AMES SALMONELLA TYPHIMURIUM, Strain/Indicator: TA98, Metabolic Activation: NONE, Method: STANDARD PLATE) “active; positive”; (Test System: AMES SALMONELLA TYPHIMURIUM, Strain/Indicator: TA98, Metabolic Activation: RAT, LIVER, S-9, Method: STANDARD PLATE) “active; positive”. Besides, the mutagenic call (Test System: AMES SALMONELLA TYPHIMURIUM, Strain/Indicator: TA100, Metabolic Activation: NONE, Method: STANDARD PLATE) was “active; positive”; the mutagenic call (Test System: AMES SALMONELLA TYPHIMURIUM, Strain/Indicator: TA1535, Metabolic Activation: NONE, Method: STANDARD PLATE) was “inactive; negative”; the mutagenic call (Test System: AMES SALMONELLA TYPHIMURIUM, Strain/Indicator: TA1537, Metabolic Activation: NONE, Method: STANDARD PLATE) was “active; positive”; the mutagenic call (Test System: AMES SALMONELLA TYPHIMURIUM, Strain/Indicator: TA1537 PKM101, Metabolic Activation: NONE, Method: STANDARD PLATE) is “active; positive”; the mutagenic call (Test System: AMES SALMONELLA TYPHIMURIUM, Strain/Indicator: TA1538, Metabolic Activation: NONE, Method: STANDARD PLATE) was “active; positive”; the mutagenic call (Test System: CHINESE HAMSTER V-79, Strain/Indicator: V-79/6-THIOGUANINE, Metabolic Activation: NONE, Method: STANDARD PLATE) is “active; positive”. Further, the mutagenic call (Test System: CHINESE HAMSTER V-79, Strain/Indicator: V-79/OUABAIN, Metabolic Activation: NONE, Method: STANDARD PLATE) is “inactive; negative”; the mutagenic call (Test System: Escherichia coli, Strain/Indicator: CC107 (G6 to G7 frameshifts), Metabolic Activation: None, Method: Modified preincubation) is “active; positive”; the mutagenic call (Test System: Escherichia coli, Strain/Indicator: CC108 (G6 to G5 frameshifts), Metabolic Activation: None, Method: Modified preincubation) was “active; positive”; the mutagenic call (Test System: Escherichia coli, Strain/Indicator: CC109 (CG5 to CG4 frameshifts), Metabolic Activation: None, Method: Modified preincubation) is “inactive; negative, investigators report as positive based on revertant frequency correcte”; the mutagenic call (Test System: Escherichia coli, Strain/Indicator: CC111 (A7 to A6 frameshifts), Metabolic Activation: None, Method: Modified preincubation) is “inactive; negative”.
